Laboratory results from patent US12622968B2, “Formulation for oral delivery of proteins, peptides and small molecules with poor permeability” (R.P. Scherer Technologies, LLC, priority 2019, dated 2026).
“And” between values parts separate entries of the source, which are not always exact repeats. Equal values may be shown once.

Assay: Single dose oral capsule pharmacokinetics of BHV-3500 in dogs (plasma LC-MS/MS)
Format: in vivo, beagle dogs
Parameters: key to t1/2 / Tmax / Cmax / AUC0-4 hr: X = no plasma exposure
Details: for increase of plasma level versus no vehicle (Group 4): Group 5, 50 mg with Vehicle 6
Protocol: The pharmacokinetics (PK) of BHV-3500 after a single oral capsule of BHV-3500 in dogs were investigated.
After each dose, blood samples (approximately 3 mL from the jugular vein) for determination of plasma levels of BHV-3500 were obtained from of each dog at six time points (pre-dose; 15, 30, and 60 minutes and 2 and 4 hours post-dose. EDTA was used as the anticoagulant. Plasma samples were frozen at approximately −70′C until analyzed.
For the determination of BHV-3500 in plasma, a 50 μL aliquot from each sample was transferred into the appropriate well of a 96-well plate to which 10 μL of 50% acetonitrile (ACN) in water was added, followed by 250 μL of internal standard solution (10 ng/mL BHV-3500-d8 in ACN). After sealing the plate and vortexing for approximately 5 minutes, the plate was centrifuged at 4,000 rpm for 10 minutes at 4±4° C. A portion (100 μL) of the resulting supernatant was transferred to into the appropriate well (containing 300 μL 0.15% formic acid in water) of another 96-well plate. This plate was sealed and its contents mixed prior to instrumental analysis.
Freshly prepared BHV-3500 standard curves and QC samples were analyzed along with the study samples. Instrument calibrators were prepared by adding 10 μL of a stock BHV-3500 solution to 50 μL of blank dog plasma. Blank dog plasma was sourced from BioIVT (Hicksville, NY) and stored frozen at −20° C. Nominal calibrator concentrations ranged from 2.00 to 200 ng/mL. QC samples were prepared at concentrations of 6.00, 50.0 and 150 ng/mL. Calibrators and QC samples were processed for analysis following the extraction procedure described above.
Calibrator, QC and study samples were analyzed under LC-S/MS instrument conditions detailed in Table 7.
Calibration curves were calculated from the linear regression (weighting factor of 1/x2) of the analyte to internal standard peak area ratios versus the analyte concentrations. Concentrations of analyte in the samples were determined using the peak area ratios and the regression parameters of the calibration curves.
Individual animal plasma BHV-3500 concentration data at scheduled (nominal) sampling times were analyzed using the non-compartmental model f r extravascular administration with Phoenix WinNonlin software (Version 8.1; Certara, Princeton, NJ).
Elimination rate constant values (λz) were calculated by log-linear regression on data points of the terminal phase (using Phoenix WinNonlin's Best Fit Lambda Z Calculation Method option) when allowed by the data; the plasma elimination half-life (t1/2) was calculated as ln(2)/λz. Area under the plasma concentration-time curve values from time zero to the concentration at the 4 hour time point (AUC0-4 hr) were calculated by the linear-up/log-down trapezoidal rule.
Nominal dose levels were used for PK analysis. The PK parameters listed below were evaluated (as applicable and when allowed by the data). • Elimination half-life (t1/2) • Time of occurrence of maximum plasma concentration (Tmax) • Maximum plasma concentration (Cmax) • Area under plasma concentration-time curve [0 to the 4 hour time point; AUC0-4hr]

[1] = Group 1, oral capsule, 20 mg BHV-3500, no vehicle, average
[2] = Group 1, oral capsule, 20 mg BHV-3500, no vehicle, median
[3] = Group 3, oral capsule, 20 mg BHV-3500 in 25 mg DDM, individual dogs
[4] = Group 5, oral capsule, 50 mg BHV-3500 in 900 mg vehicle of Formulation 2 (SEDDS excipients), individual dogs

Structure (SMILES): Cc1cc(C[C@@H](NC(=O)N2CCC(c3cc4ccccc4[nH]c3=O)CC2)C(=O)N2CCN(C3CCN(C)CC3)CC2)cc2cn[nH]c12 [BHV-3500, (R)—N-(3-(7-methyl-1H indazol-5-yl)-1-(4-(1-methylpiperidin-4-yl)piperazin-1-yl)-1-oxopropan-2-yl)-4-(2-oxo-1,2 dihydroquinolin-3-yl)piperidine-1-carboxamide]
- plasma levels at all time points (Group 1, oral capsule, 20 mg BHV-3500, no vehicle): BQL (BQL = below quantitation limit (2.0 ng/mL))
- BHV-3500 Concentration in Dog Plasma (Group 1, oral capsule, 20 mg BHV-3500, no vehicle, 0.25 h post-dose, average): BQL (BQL = below quantitation limit (2.0 ng/mL))
- BHV-3500 Concentration in Dog Plasma (Group 1, oral capsule, 20 mg BHV-3500, no vehicle, 0.25 h post-dose, individual dogs): BQL (BQL = below quantitation limit (2.0 ng/mL))
- BHV-3500 Concentration in Dog Plasma (Group 1, oral capsule, 20 mg BHV-3500, no vehicle, 0.5 h post-dose, average): BQL (BQL = below quantitation limit (2.0 ng/mL))
- BHV-3500 Concentration in Dog Plasma (Group 1, oral capsule, 20 mg BHV-3500, no vehicle, 0.5 h post-dose, individual dogs): BQL (BQL = below quantitation limit (2.0 ng/mL))
- BHV-3500 Concentration in Dog Plasma (Group 1, oral capsule, 20 mg BHV-3500, no vehicle, 1 h post-dose, average): BQL (BQL = below quantitation limit (2.0 ng/mL))
- BHV-3500 Concentration in Dog Plasma (Group 1, oral capsule, 20 mg BHV-3500, no vehicle, 1 h post-dose, individual dogs): BQL (BQL = below quantitation limit (2.0 ng/mL))
- BHV-3500 Concentration in Dog Plasma (Group 1, oral capsule, 20 mg BHV-3500, no vehicle, 2 h post-dose, average): BQL (BQL = below quantitation limit (2.0 ng/mL))
- BHV-3500 Concentration in Dog Plasma (Group 1, oral capsule, 20 mg BHV-3500, no vehicle, 2 h post-dose, individual dogs): BQL (BQL = below quantitation limit (2.0 ng/mL))
- BHV-3500 Concentration in Dog Plasma (Group 1, oral capsule, 20 mg BHV-3500, no vehicle, 4 h post-dose, average): BQL (BQL = below quantitation limit (2.0 ng/mL))
- BHV-3500 Concentration in Dog Plasma (Group 1, oral capsule, 20 mg BHV-3500, no vehicle, 4 h post-dose, individual dogs): BQL (BQL = below quantitation limit (2.0 ng/mL))
- AUC0-4 hr [1]: X
- Cmax [1]: X
- Tmax [2]: X
- t1/2 [2]: X
- BHV-3500 Concentration in Dog Plasma (Group 2, oral capsule, 20 mg BHV-3500 in 900 mg vehicle of Formulation 2 (SEDDS excipients), 0.25 h post-dose, average): BQL (BQL = below quantitation limit (2.0 ng/mL))
- BHV-3500 Concentration in Dog Plasma (Group 2, oral capsule, 20 mg BHV-3500 in 900 mg vehicle of Formulation 2 (SEDDS excipients), 0.25 h post-dose, individual dogs): BQL (BQL = below quantitation limit (2.0 ng/mL))
- BHV-3500 Concentration in Dog Plasma (Group 2, oral capsule, 20 mg BHV-3500 in 900 mg vehicle of Formulation 2 (SEDDS excipients), 0.5 h post-dose, average): BQL (BQL = below quantitation limit (2.0 ng/mL))
- BHV-3500 Concentration in Dog Plasma (Group 2, oral capsule, 20 mg BHV-3500 in 900 mg vehicle of Formulation 2 (SEDDS excipients), 0.5 h post-dose, individual dogs): BQL (BQL = below quantitation limit (2.0 ng/mL))
- BHV-3500 Concentration in Dog Plasma (Group 2, oral capsule, 20 mg BHV-3500 in 900 mg vehicle of Formulation 2 (SEDDS excipients), 1 h post-dose, individual dogs): BQL (BQL = below quantitation limit (2.0 ng/mL))
- BHV-3500 Concentration in Dog Plasma (Group 2, oral capsule, 20 mg BHV-3500 in 900 mg vehicle of Formulation 2 (SEDDS excipients), 2 h post-dose, individual dogs): BQL (BQL = below quantitation limit (2.0 ng/mL)) and 19.4 ng/mL and 8.94 ng/mL
- BHV-3500 Concentration in Dog Plasma (Group 2, oral capsule, 20 mg BHV-3500 in 900 mg vehicle of Formulation 2 (SEDDS excipients), 4 h post-dose, individual dogs): BQL (BQL = below quantitation limit (2.0 ng/mL))
- Cmax (Group 2, oral capsule, 20 mg BHV-3500 in 900 mg vehicle of Formulation 2 (SEDDS excipients), individual dogs): 19.4 ng/mL and 8.94 ng/mL
- BHV-3500 Concentration in Dog Plasma (Group 3, oral capsule, 20 mg BHV-3500 in 25 mg DDM, 0.25 h post-dose, average): BQL (BQL = below quantitation limit (2.0 ng/mL))
- BHV-3500 Concentration in Dog Plasma (Group 3, oral capsule, 20 mg BHV-3500 in 25 mg DDM, 0.25 h post-dose, individual dogs): BQL (BQL = below quantitation limit (2.0 ng/mL))
- BHV-3500 Concentration in Dog Plasma (Group 3, oral capsule, 20 mg BHV-3500 in 25 mg DDM, 0.5 h post-dose, individual dogs): BQL (BQL = below quantitation limit (2.0 ng/mL))
- BHV-3500 Concentration in Dog Plasma (Group 3, oral capsule, 20 mg BHV-3500 in 25 mg DDM, 1 h post-dose, individual dogs): BQL (BQL = below quantitation limit (2.0 ng/mL))
- BHV-3500 Concentration in Dog Plasma (Group 3, oral capsule, 20 mg BHV-3500 in 25 mg DDM, 2 h post-dose, individual dogs): 9.60 ng/mL and BQL (BQL = below quantitation limit (2.0 ng/mL)) and 28.2 ng/mL
- BHV-3500 Concentration in Dog Plasma (Group 3, oral capsule, 20 mg BHV-3500 in 25 mg DDM, 4 h post-dose, individual dogs): BQL (BQL = below quantitation limit (2.0 ng/mL))
- Cmax [3]: 9.60 ng/mL and 14.0 ng/mL and 28.2 ng/mL
- Tmax [3]: 30 min
- BHV-3500 Concentration in Dog Plasma (Group 4, oral capsule, 50 mg BHV-3500, no vehicle, 0.25 h post-dose, average): BQL (BQL = below quantitation limit (2.0 ng/mL))
- BHV-3500 Concentration in Dog Plasma (Group 4, oral capsule, 50 mg BHV-3500, no vehicle, 0.25 h post-dose, individual dogs): BQL (BQL = below quantitation limit (2.0 ng/mL))
- BHV-3500 Concentration in Dog Plasma (Group 4, oral capsule, 50 mg BHV-3500, no vehicle, 0.5 h post-dose, average): BQL (BQL = below quantitation limit (2.0 ng/mL))
- BHV-3500 Concentration in Dog Plasma (Group 4, oral capsule, 50 mg BHV-3500, no vehicle, 0.5 h post-dose, individual dogs): BQL (BQL = below quantitation limit (2.0 ng/mL))
- BHV-3500 Concentration in Dog Plasma (Group 4, oral capsule, 50 mg BHV-3500, no vehicle, 1 h post-dose, individual dogs): 4.25 ng/mL and 3.55 ng/mL
- BHV-3500 Concentration in Dog Plasma (Group 4, oral capsule, 50 mg BHV-3500, no vehicle, 2 h post-dose, individual dogs): 4.35 ng/mL and 6.61 ng/mL
- BHV-3500 Concentration in Dog Plasma (Group 4, oral capsule, 50 mg BHV-3500, no vehicle, 4 h post-dose, average): BQL (BQL = below quantitation limit (2.0 ng/mL))
- BHV-3500 Concentration in Dog Plasma (Group 4, oral capsule, 50 mg BHV-3500, no vehicle, 4 h post-dose, individual dogs): BQL (BQL = below quantitation limit (2.0 ng/mL))
- Cmax (Group 4, oral capsule, 50 mg BHV-3500, no vehicle, individual dogs): 4.35 ng/mL and 6.61 ng/mL
- increase of plasma level versus no vehicle (Group 4) (1 hour post-dose): 3.4 ×
- increase of plasma level versus no vehicle (Group 4) (2 hours post-dose): 6.6 ×
- BHV-3500 Concentration in Dog Plasma (Group 5, oral capsule, 50 mg BHV-3500 in 900 mg vehicle of Formulation 2 (SEDDS excipients), 0.25 h post-dose, average): BQL (BQL = below quantitation limit (2.0 ng/mL))
- BHV-3500 Concentration in Dog Plasma (Group 5, oral capsule, 50 mg BHV-3500 in 900 mg vehicle of Formulation 2 (SEDDS excipients), 0.25 h post-dose, individual dogs): BQL (BQL = below quantitation limit (2.0 ng/mL))
- BHV-3500 Concentration in Dog Plasma (Group 5, oral capsule, 50 mg BHV-3500 in 900 mg vehicle of Formulation 2 (SEDDS excipients), 0.5 h post-dose, average): BQL (BQL = below quantitation limit (2.0 ng/mL))
- BHV-3500 Concentration in Dog Plasma (Group 5, oral capsule, 50 mg BHV-3500 in 900 mg vehicle of Formulation 2 (SEDDS excipients), 0.5 h post-dose, individual dogs): BQL (BQL = below quantitation limit (2.0 ng/mL))
- BHV-3500 Concentration in Dog Plasma (Group 5, oral capsule, 50 mg BHV-3500 in 900 mg vehicle of Formulation 2 (SEDDS excipients), 1 h post-dose, individual dogs): 6.19 ng/mL and 5.55 ng/mL and 22.7 ng/mL
- BHV-3500 Concentration in Dog Plasma (Group 5, oral capsule, 50 mg BHV-3500 in 900 mg vehicle of Formulation 2 (SEDDS excipients), 2 h post-dose, individual dogs): 13.8 ng/mL and 6.90 ng/mL and 101 ng/mL
- BHV-3500 Concentration in Dog Plasma (Group 5, oral capsule, 50 mg BHV-3500 in 900 mg vehicle of Formulation 2 (SEDDS excipients), 4 h post-dose, individual dogs): 6.88 ng/mL and 2.62 ng/mL and 14.4 ng/mL
- AUC0-4 hr [4]: 32.8 ng·h/mL and 17.7 ng·h/mL and 161 ng·h/mL
- Cmax [4]: 13.8 ng/mL and 6.90 ng/mL and 101 ng/mL
- BHV-3500 Concentration in Dog Plasma (Group 6, oral capsule, 50 mg BHV-3500 in 25 mg DDM, 0.25 h post-dose, average): BQL (BQL = below quantitation limit (2.0 ng/mL))
- BHV-3500 Concentration in Dog Plasma (Group 6, oral capsule, 50 mg BHV-3500 in 25 mg DDM, 0.25 h post-dose, individual dogs): BQL (BQL = below quantitation limit (2.0 ng/mL))
- BHV-3500 Concentration in Dog Plasma (Group 6, oral capsule, 50 mg BHV-3500 in 25 mg DDM, 0.5 h post-dose, average): BQL (BQL = below quantitation limit (2.0 ng/mL))
- BHV-3500 Concentration in Dog Plasma (Group 6, oral capsule, 50 mg BHV-3500 in 25 mg DDM, 0.5 h post-dose, individual dogs): BQL (BQL = below quantitation limit (2.0 ng/mL))
- BHV-3500 Concentration in Dog Plasma (Group 6, oral capsule, 50 mg BHV-3500 in 25 mg DDM, 1 h post-dose, individual dogs): BQL (BQL = below quantitation limit (2.0 ng/mL))
